Like-named read-outs stand apart in the source and are kept apart here.
Assay: Single dose clinical study: plasma Compound A pharmacokinetics
Type: in vivo, human
Conditions: human, plasma
Procedure: This was a single center, single dose, randomized, double blind, placebo controlled study in healthy subjects. It consisted of 4 parts: Parts A, B, C, and D. Each of the four study parts had 2 phases: Prerandomization Phase and Randomization Phase. The Prerandomization Phase lasted up to 30 days and consisted of a Screening Period and a Baseline Period, during which each subject's study eligibility was determined and baseline assessments were performed.
In Part A, there were 8 sequential cohorts of healthy adult subjects (18-50 years of age). Subjects were randomly assigned to Compound A or placebo in a ratio of 6:2, respectively. Subjects in the Compound A cohorts were treated with single ascending doses of 10, 25, 50, 100, 200, 400, 800, or 1200 mg.
In Part B, there were 4 cohorts of healthy adult subjects (18-50 years of age). There were 8 subjects in Cohort 1, with 6 subjects randomly assigned to receive single doses of Compound A (400 mg) and 2 subjects randomly assigned to receive placebo. There were 7 subjects in Cohort 2 and Cohort 3, each with 6 subjects randomly assigned to receive single doses of Compound A (100 and 200 mg, respectively) and 1 subject randomly assigned to receive placebo. The dose of 100 mg selected in Cohort 2 was based on preliminary analysis of Cohort 1 data; this dose was predicted from PK/PD modeling to achieve a sustained CSF cGMP increase from baseline of approximately 200% when administered to steady state, and thereby provided a potentially therapeutic dose for further evaluation in future studies. There were 7 subjects in Cohort 4, with 6 subjects randomly assigned to receive a single dose of Compound A (50 mg [n=3] or 75 mg [n=3]) and 1 subject randomly assigned to receive placebo. The doses for Cohorts 3 and 4 were selected based on PK/PD modeling of the data in Cohorts 1 and 2.
Subjects in Cohort 2 who had received Compound A 100 mg or placebo under fasted conditions (1st Treatment Period) also participated in an evaluation of food effect on the PK of Compound A (2nd Treatment Period). After a washout period of at least 13 days (or 5 half-lives of Compound A, whichever was longer), subjects were admitted to the clinic for baseline assessments (2nd Baseline Period) and then received a single dose of the same treatment (Compound A 100 mg or placebo) after consuming a high fat and high calorie meal over 30 minutes. Blood PK samples were collected at prespecified time points. Safety evaluations were also assessed. CSF was not collected for PD evaluation during the 2nd Treatment Period. A Follow Up Visit occurred on Day 10 of Treatment Period 2.
In Part C, there was 1 cohort of 8 healthy elderly subjects (65 to 85 years of age) randomly assigned to receive a single dose of Compound A 100 mg or placebo in a ratio of 6:2, respectively.
In Part D, 3 cohorts of healthy adult Japanese subjects were randomized in parallel. There were 7 subjects in each cohort and subjects were randomly assigned to receive single doses of Compound A (25, 100, or 400 mg) or placebo in a ratio of 6:1, respectively.
Blood samples for determination of plasma Compound A concentrations were collected from predose to 216 hours postdose. On Day 1, blood PK samples were collected at predose and postdose 0.5 (30 minutes), 1, 1.5, 2, 3, 4, 5, 6, 8, 12, and 18 hours. Thereafter, samples were collected on Day 2 (24 and 36 hours postdose), Day 3 (48 hours postdose), Day 4 (72 hours postdose), Day 5 (96 hours postdose), Day 6 (120 hours postdose), Day 7 (144 hours postdose), and Day 10 (216 hours postdose).
Blood samples for determination of plasma Compound A concentrations were collected from predose to 216 hours postdose. For all cohorts, blood PK samples were collected on Day 1 at predose and postdose at 0.5 (30 minutes), 1, 1.5, 2, 3, 4, 5, 6, 8, 10, 12, and 18 hours. […]

Which results are given for `COc1ncc(C)c(-c2ccc3c(c2)[nH]c(=O)c2cnn([C@H]4CCOC4)c23)c1C` [Compound A, (S)-7-(2-methoxy-3,5-dimethylpyridin-4-yl)-1-(tetrahydrofuran-3-yl)-1H-pyrazolo[4,3-c]quin olin-4(5H)-one]?
Cmax (oral, 400 mg, non-Japanese, 400 mg, with weight as covariate, read-out: Cmax Geometric LS Means Reference): 833 ng/mL; AUC (oral, 400 mg, non-Japanese, 400 mg, without weight as covariate, read-out: AUC(O-inf) Geometric LS Means Reference): 35800 ng·h/mL; Cmax (oral, 400 mg, non-Japanese, 400 mg, without weight as covariate, read-out: Cmax Geometric LS Means Reference): 827 ng/mL; half-life (oral, single doses of 10 to 1200 mg, read-out: Mean t1/2 across all doses): 26.8 to 33.6 h; Tmax (oral, single doses of 10 to 1200 mg, read-out: median plasma tmax across all doses): 2 to 4 h; AUC(0-t) (po, 10 mg, healthy adults (Parts A,B), single oral 10 mg, fasted, read-out: AUC(0-24 h) GM): 719 ng·h/mL; AUC(0-t) (po, 10 mg, healthy adults (Parts A,B), single oral 10 mg, fasted, read-out: AUC(0-30 h) GM): 863 ng·h/mL; AUC(0-t) (po, 10 mg, healthy adults (Parts A,B), single oral 10 mg, fasted, read-out: AUC(0-72 h) GM): 1430 ng·h/mL; AUC(0-inf) (po, 10 mg, healthy adults (Parts A,B), single oral 10 mg, fasted, read-out: AUC(0-inf) GM): 1840 ng·h/mL; AUC(0-t) (po, 10 mg, healthy adults (Parts A,B), single oral 10 mg, fasted, read-out: AUC(0-t) GM): 1700 ng·h/mL; Cmax (po, 10 mg, healthy adults (Parts A,B), single oral 10 mg, fasted, read-out: Cmax GM): 60.2 ng/mL; Vd/F (po, 10 mg, healthy adults (Parts A,B), single oral 10 mg, fasted, read-out: Vz/F GM): 255 L; half-life (po, 10 mg, healthy adults (Parts A,B), single oral 10 mg, fasted, read-out: t1/2 Mean (converted)): 33.6 h; Tmax (po, 10 mg, healthy adults (Parts A,B), single oral 10 mg, fasted, read-out: tmax Median): 2.27 h; AUC(0-inf) (po, 25 mg, Japanese Subjects (Part D), single oral 25 mg, read-out: AUC(0-inf) GM): 4580 ng·h/mL; Cmax (po, 25 mg, Japanese Subjects (Part D), single oral 25 mg, read-out: Cmax GM (% CV)): 212 ng/mL; Vd/F (po, 25 mg, Japanese Subjects (Part D), single oral 25 mg, read-out: Vz/F GM (% CV)): 165 L; half-life (po, 25 mg, Japanese Subjects (Part D), single oral 25 mg, read-out: t1/2 Mean (SD) (converted)): 21.5 h; Tmax (po, 25 mg, Japanese Subjects (Part D), single oral 25 mg, read-out: tmax Median): 2.08 h; AUC(0-inf) (po, 25 mg, Non-Japanese Subjects (Parts A,B), single oral 25 mg, read-out: AUC(0-inf) GM): 4340 ng·h/mL; Cmax (po, 25 mg, Non-Japanese Subjects (Parts A,B), single oral 25 mg, read-out: Cmax GM (% CV)): 152 ng/mL; Vd/F (po, 25 mg, Non-Japanese Subjects (Parts A,B), single oral 25 mg, read-out: Vz/F GM (% CV)): 216 L; half-life (po, 25 mg, Non-Japanese Subjects (Parts A,B), single oral 25 mg, read-out: t1/2 Mean (SD) (converted)): 26.8 h; Tmax (po, 25 mg, Non-Japanese Subjects (Parts A,B), single oral 25 mg, read-out: tmax Median): 2.65 h; AUC(0-t) (po, 25 mg, healthy adults (Parts A,B), single oral 25 mg, fasted, read-out: AUC(0-24 h) GM): 1850 ng·h/mL; AUC(0-t) (po, 25 mg, healthy adults (Parts A,B), single oral 25 mg, fasted, read-out: AUC(0-30 h) GM): 2200 ng·h/mL; AUC(0-t) (po, 25 mg, healthy adults (Parts A,B), single oral 25 mg, fasted, read-out: AUC(0-72 h) GM): 3570 ng·h/mL; AUC(0-inf) (po, 25 mg, healthy adults (Parts A,B), single oral 25 mg, fasted, read-out: AUC(0-inf) GM): 4340 ng·h/mL; AUC(0-t) (po, 25 mg, healthy adults (Parts A,B), single oral 25 mg, fasted, read-out: AUC(0-t) GM): 4200 ng·h/mL; Cmax (po, 25 mg, healthy adults (Parts A,B), single oral 25 mg, fasted, read-out: Cmax GM): 152 ng/mL; Vd/F (po, 25 mg, healthy adults (Parts A,B), single oral 25 mg, fasted, read-out: Vz/F GM): 216 L; half-life (po, 25 mg, healthy adults (Parts A,B), single oral 25 mg, fasted, read-out: t1/2 Mean (converted)): 26.8 h; Tmax (po, 25 mg, healthy adults (Parts A,B), single oral 25 mg, fasted, read-out: tmax Median): 2.65 h; AUC(0-t) (po, 50 mg, healthy adults (Parts A,B), single oral 50 mg, fasted, read-out: AUC(0-24 h) GM): 3370 ng·h/mL; AUC(0-t) (po, 50 mg, healthy adults (Parts A,B), single oral 50 mg, fasted, read-out: AUC(0-30 h) GM): 4010 ng·h/mL; AUC(0-t) (po, 50 mg, healthy adults (Parts A,B), single oral 50 mg, fasted, read-out: AUC(0-72 h) GM): 6490 ng·h/mL; AUC(0-inf) (po, 50 mg, healthy adults (Parts A,B), single oral 50 mg, fasted, read-out: AUC(0-inf) GM): 7900 ng·h/mL; AUC(0-t) (po, 50 mg, healthy adults (Parts A,B), single oral 50 mg, fasted, read-out: AUC(0-t) GM): 7720 ng·h/mL; Cmax (po, 50 mg, healthy adults (Parts A,B), single oral 50 mg, fasted, read-out: Cmax GM): 225 ng/mL; Vd/F (po, 50 mg, healthy adults (Parts A,B), single oral 50 mg, fasted, read-out: Vz/F GM): 233 L; half-life (po, 50 mg, healthy adults (Parts A,B), single oral 50 mg, fasted, read-out: t1/2 Mean (converted)): 26.9 h; Tmax (po, 50 mg, healthy adults (Parts A,B), single oral 50 mg, fasted, read-out: tmax Median): 4 h; AUC(0-t) (po, 75 mg, healthy adults (Parts A,B), single oral 75 mg, fasted, read-out: AUC(0-24 h) GM): 3650 ng·h/mL; AUC(0-t) (po, 75 mg, healthy adults (Parts A,B), single oral 75 mg, fasted, read-out: AUC(0-30 h) GM): 4460 ng·h/mL; AUC(0-t) (po, 75 mg, healthy adults (Parts A,B), single oral 75 mg, fasted, read-out: AUC(0-72 h) GM): 7880 ng·h/mL; AUC(0-inf) (po, 75 mg, healthy adults (Parts A,B), single oral 75 mg, fasted, read-out: AUC(0-inf) GM): 9880 ng·h/mL; AUC(0-t) (po, 75 mg, healthy adults (Parts A,B), single oral 75 mg, fasted, read-out: AUC(0-t) GM): 9520 ng·h/mL; Cmax (po, 75 mg, healthy adults (Parts A,B), single oral 75 mg, fasted, read-out: Cmax GM): 222 ng/mL; Vd/F (po, 75 mg, healthy adults (Parts A,B), single oral 75 mg, fasted, read-out: Vz/F GM): 308 L; half-life (po, 75 mg, healthy adults (Parts A,B), single oral 75 mg, fasted, read-out: t1/2 Mean (converted)): 28.9 h; Tmax (po, 75 mg, healthy adults (Parts A,B), single oral 75 mg, fasted, read-out: tmax Median): 3 h; AUC(0-inf) (po, 100 mg, Elderly, single oral 100 mg, read-out: AUC(0-inf) Geometric LS Means Test): 21300 ng·h/mL; Cmax (po, 100 mg, Elderly, single oral 100 mg, read-out: Cmax Geometric LS Means Test): 543 ng/mL; AUC(0-inf) (po, 100 mg, Younger Adults (Parts A,B), single oral 100 mg, read-out: AUC(0-inf) Geometric LS Means Reference): 15000 ng·h/mL; Cmax (po, 100 mg, Younger Adults (Parts A,B), single oral 100 mg, read-out: Cmax Geometric LS Means Reference): 373 ng/mL; AUC(0-inf) (po, 100 mg, Japanese Subjects (Part D), single oral 100 mg, read-out: AUC(0-inf) GM): 14200 ng·h/mL

From patent US20220378706A1, “PHARMACEUTICAL COMPOSITION COMPRISING PDE9 INHIBITOR” (Eisai R&D Management Co., Ltd., priority 2017, published 2022)
